Source: US11053204B2, “Pyrimidinyloxy benzene derivatives as herbicides” (FMC Corporation, priority 2015, dated 2021)

Legend:
Format in all cases: in vivo
[1] = tested on: giant foxtail (Setaria faberii); experiment: Test A preemergence, visual injury rating; details: Setaria faberi, pre-emergence, 240 h, 0 to 100 scale (0 no effect, 100 complete control), read-out: Foxtail, Giant plant response rating
In short: (§1)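 Injury scores run from 0, no effect, to 100, complete control, judged by eye against untreated plants roughly 10 days after treatment. Chemicals carried a surfactant in a non-phytotoxic solvent and went onto loam–sand soil preemergence or onto one- to two-leaf seedlings postemergence.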

[2] = tested on: Italian ryegrass (Lolium multiflorum); experiment: Test A preemergence, visual injury rating; details: Lolium multiflorum, pre-emergence, 240 h, 0 to 100 scale (0 no effect, 100 complete control), read-out: Ryegrass, Italian plant response rating
In short: as §1

[3] = tested on: ragweed (common ragweed, Ambrosia elatior); experiment: Test A preemergence, visual injury rating; details: Ambrosia artemisiifolia, pre-emergence, 240 h, 0 to 100 scale (0 no effect, 100 complete control), read-out: Ragweed plant response rating
In short: as §1

[4] = tested on: barnyardgrass (Echinochloa crus-galli); experiment: Test A preemergence, visual injury rating; details: Echinochloa crus-galli, pre-emergence, 240 h, 0 to 100 scale (0 no effect, 100 complete control), read-out: Barnyardgrass plant response rating
In short: as §1

[5] = tested on: pigweed (Amaranthus retroflexus); experiment: Test A preemergence, visual injury rating; details: Amaranthus retroflexus, pre-emergence, 240 h, 0 to 100 scale (0 no effect, 100 complete control), read-out: Pigweed plant response rating
In short: as §1

kochia (Kochia scoparia) [6] = experiment: Test A preemergence, visual injury rating; details: Bassia scoparia, pre-emergence, 240 h, 0 to 100 scale (0 no effect, 100 complete control), read-out: Kochia plant response rating
In short: as §1

[7] = tested on: ragweed (common ragweed, Ambrosia elatior); experiment: Test C preemergence, plant response rating; details: Ambrosia artemisiifolia, pre-emergence, Preemergence
Source text: Seeds of plant species selected from blackgrass (Alopecurus myosuroides), ryegrass, Italian (Italian ryegrass, Lolium multiflorum), wheat (winter wheat, Triticum aestivum), galium (catchweed bedstraw, Galium aparine), corn (Zea mays), crabgrass, large (large crabgrass, Digitaria sanguinalis), foxtail, giant (giant foxtail, Setaria faberii), johnsongrass (Sorghum halepense), lambsquarters (Chenopodium album), morningglory (Ipomoea coccinea), nutsedge, yellow (yellow nutsedge, Cyperus esculentus), pigweed (Amaranthus retroflexus), ragweed (common ragweed, Ambrosia elatior), soybean (Glycine max), barnyardgrass (Echinochloa crus-galli), oilseed rape (Brassica napus), pigweed, palmer (palmer pigweed, Amaranthus palmeri), waterhemp (common waterhemp, Amaranthus rudis), velvetleaf (Abutilon theophrasti), kochia (Kochia scoparia), surinam grass (Brachiaria decumbens), nightshade (eastern black nightshade, Solanum ptycanthum), wild poinsettia (Euphorbia heterophylla), windgrass (Apera spica-venti), and oat, wild (wild oat Avena fatua), were planted into a blend of loam soil and sand or a silt loam soil and treated preemergence with test chemicals formulated in a non-phytotoxic solvent mixture which included a surfactant.
At the same time, plants selected from these crop and weed species and also chickweed (common chickweed, Stellaria media), buckwheat, wild (wild buckwheat, Polygonum convolvulus), wild mustard (Sinapis arvensis), field poppy (Papaver rhoeas), field violet (Viola arvensis), geranium, cutleaf (cutleaf geranium, Geranium dissectum), Canada thistle (Cirsium arvense), and speedwell (bird's-eye speedwell, Veronica persica), were planted in pots containing Sunshine Redi-Earth® planting medium comprising spaghnum peat moss, vermiculite, starter nutrients and dolomitic limestone and treated with postemergence applications of test chemicals formulated in the same manner. Plants ranged in height from 2 to 18 cm (1- to 4-leaf stage) for postemergence treatments. Treated plants and controls were maintained in a greenhouse for 13 to 15 d, after which time all species were compared to controls and visually evaluated. Plant response ratings, summarized in Table C, are based on a scale of 0 to 100 where 0 is no effect and 100 is complete control. A dash (-) response means no test result.

corn (Zea mays) = experiment: Test A postemergence, visual injury rating; details: Zea mays, post-emergence, 240 h, 0 is no effect, 100 is complete control, read-out: Corn plant response rating (0 to 100 scale)
In short: as §1

[8] = tested on: giant foxtail (Setaria faberii); experiment: Test A postemergence, visual injury rating; details: Setaria faberi, post-emergence, 240 h, 0 is no effect, 100 is complete control, read-out: Foxtail, Giant plant response rating (0 to 100 scale)
In short: as §1

[9] = tested on: galium (catchweed bedstraw, Galium aparine); experiment: Test A postemergence, visual injury rating; details: Galium, post-emergence, 240 h, 0 is no effect, 100 is complete control, read-out: Galium plant response rating (0 to 100 scale)
In short: as §1

[10] = tested on: blackgrass (Alopecurus myosuroides); experiment: Test A postemergence, visual injury rating; details: Alopecurus myosuroides, post-emergence, 240 h, 0 is no effect, 100 is complete control, read-out: Blackgrass plant response rating (0 to 100 scale)
In short: as §1

[11] = tested on: Italian ryegrass (Lolium multiflorum); experiment: Test A postemergence, visual injury rating; details: Lolium multiflorum, post-emergence, 240 h, 0 is no effect, 100 is complete control, read-out: Ryegrass, Italian plant response rating (0 to 100 scale)
In short: as §1

[12] = tested on: ragweed (common ragweed, Ambrosia elatior); experiment: Test A postemergence, visual injury rating; details: Ambrosia artemisiifolia, post-emergence, 240 h, 0 is no effect, 100 is complete control, read-out: Ragweed plant response rating (0 to 100 scale)
In short: as §1

[13] = tested on: barnyardgrass (Echinochloa crus-galli); experiment: Test A postemergence, visual injury rating; details: Echinochloa crus-galli, post-emergence, 240 h, 0 is no effect, 100 is complete control, read-out: Barnyardgrass plant response rating (0 to 100 scale)
In short: as §1

[14] = tested on: pigweed (Amaranthus retroflexus); experiment: Test A postemergence, visual injury rating; details: Amaranthus retroflexus, post-emergence, 240 h, 0 is no effect, 100 is complete control, read-out: Pigweed plant response rating (0 to 100 scale)
In short: as §1

kochia (Kochia scoparia) [15] = experiment: Test A postemergence, visual injury rating; details: Bassia scoparia, post-emergence, 240 h, 0 is no effect, 100 is complete control, read-out: Kochia plant response rating (0 to 100 scale)
In short: as §1

[16] = tested on: wheat (Triticum aestivum); experiment: Test A postemergence, visual injury rating; details: Triticum aestivum, post-emergence, 240 h, 0 is no effect, 100 is complete control, read-out: Wheat plant response rating (0 to 100 scale)
In short: as §1

CC(CC(F)(F)F)OC(=O)c1c(Br)cccc1Oc1ncc(Cl)cn1 (stereo not drawn) [Compound 16, 3,3,3-trifluoro-1-methylpropyl 2-bromo-6-[(5-chloro-2-pyrimidinyl)oxy]benzoate]
pest or weed control at 125 g/ha ([1]; 125 g ai/ha): 90%
pest or weed control at 500 g/ha ([1]; 500 g ai/ha): 100%
pest or weed control at 125 g/ha ([2]; 125 g ai/ha): 0%
pest or weed control at 500 g/ha ([2]; 500 g ai/ha): 20%
pest or weed control at 125 g/ha ([3]; 125 g ai/ha): 0%
pest or weed control at 500 g/ha ([3]; 500 g ai/ha): 0%
pest or weed control at 125 g/ha ([4]; 125 g ai/ha): 30%
pest or weed control at 500 g/ha ([4]; 500 g ai/ha): 100%
pest or weed control at 125 g/ha ([5]; 125 g ai/ha): 90%
pest or weed control at 500 g/ha ([5]; 500 g ai/ha): 100%
pest or weed control at 125 g/ha (kochia (Kochia scoparia) [6]; 125 g ai/ha): 90%
pest or weed control at 500 g/ha (kochia (Kochia scoparia) [6]; 500 g ai/ha): 80%
pest or weed control at 125 g/ha ([7]; 125 g ai/ha, scale of 0 to 100): 0%
pest or weed control at 16 g/ha ([7]; 16 g ai/ha, scale 0 to 100): 0%
pest or weed control at 31 g/ha ([7]; 31 g ai/ha, scale 0 to 100): 0%
pest or weed control at 62 g/ha ([7]; 62 g ai/ha, scale 0 to 100): 5%
plant injury at 125 g/ha (corn (Zea mays); 125 g ai/ha): 20%
plant injury at 500 g/ha (corn (Zea mays); 500 g ai/ha): 60%
pest or weed control at 125 g/ha ([8]; 125 g ai/ha): 20%
pest or weed control at 500 g/ha ([8]; 500 g ai/ha): 90%
pest or weed control at 125 g/ha ([9]; 125 g ai/ha): 90%
pest or weed control at 500 g/ha ([9]; 500 g ai/ha): 100%
pest or weed control at 125 g/ha ([10]; 125 g ai/ha): 20%
pest or weed control at 500 g/ha ([10]; 500 g ai/ha): 90%
pest or weed control at 125 g/ha ([11]; 125 g ai/ha): 10%
pest or weed control at 500 g/ha ([11]; 500 g ai/ha): 30%
pest or weed control at 125 g/ha ([12]; 125 g ai/ha): 10%
pest or weed control at 500 g/ha ([12]; 500 g ai/ha): 30%
pest or weed control at 125 g/ha ([13]; 125 g ai/ha): 10%
pest or weed control at 500 g/ha ([13]; 500 g ai/ha): 90%
pest or weed control at 125 g/ha ([14]; 125 g ai/ha): 90%
pest or weed control at 500 g/ha ([14]; 500 g ai/ha): 100%
pest or weed control at 125 g/ha (kochia (Kochia scoparia) [15]; 125 g ai/ha): 80%
pest or weed control at 500 g/ha (kochia (Kochia scoparia) [15]; 500 g ai/ha): 100%
plant injury at 125 g/ha ([16]; 125 g ai/ha): 20%
plant injury at 500 g/ha ([16]; 500 g ai/ha): 20%
